# Source: US20100105655A1, “NOVEL COMPOUNDS 515” (ASTRAZENECA AB, priority 2008, published 2010)
# Molecular target: T1, IGFR kinase (Homo sapiens, UniProt P08069)
# T1 construct: purchased Millipore
# Experiment: Enzyme assay (c), IGFR kinase, Caliper LabChip
# Assay type: biochemical
# Conditions: 30 nM IGFR kinase, 6 uM ATP, 3 uM peptide mix; read-out: IGFR IC50
# T1 sequence (P08069 31-1367): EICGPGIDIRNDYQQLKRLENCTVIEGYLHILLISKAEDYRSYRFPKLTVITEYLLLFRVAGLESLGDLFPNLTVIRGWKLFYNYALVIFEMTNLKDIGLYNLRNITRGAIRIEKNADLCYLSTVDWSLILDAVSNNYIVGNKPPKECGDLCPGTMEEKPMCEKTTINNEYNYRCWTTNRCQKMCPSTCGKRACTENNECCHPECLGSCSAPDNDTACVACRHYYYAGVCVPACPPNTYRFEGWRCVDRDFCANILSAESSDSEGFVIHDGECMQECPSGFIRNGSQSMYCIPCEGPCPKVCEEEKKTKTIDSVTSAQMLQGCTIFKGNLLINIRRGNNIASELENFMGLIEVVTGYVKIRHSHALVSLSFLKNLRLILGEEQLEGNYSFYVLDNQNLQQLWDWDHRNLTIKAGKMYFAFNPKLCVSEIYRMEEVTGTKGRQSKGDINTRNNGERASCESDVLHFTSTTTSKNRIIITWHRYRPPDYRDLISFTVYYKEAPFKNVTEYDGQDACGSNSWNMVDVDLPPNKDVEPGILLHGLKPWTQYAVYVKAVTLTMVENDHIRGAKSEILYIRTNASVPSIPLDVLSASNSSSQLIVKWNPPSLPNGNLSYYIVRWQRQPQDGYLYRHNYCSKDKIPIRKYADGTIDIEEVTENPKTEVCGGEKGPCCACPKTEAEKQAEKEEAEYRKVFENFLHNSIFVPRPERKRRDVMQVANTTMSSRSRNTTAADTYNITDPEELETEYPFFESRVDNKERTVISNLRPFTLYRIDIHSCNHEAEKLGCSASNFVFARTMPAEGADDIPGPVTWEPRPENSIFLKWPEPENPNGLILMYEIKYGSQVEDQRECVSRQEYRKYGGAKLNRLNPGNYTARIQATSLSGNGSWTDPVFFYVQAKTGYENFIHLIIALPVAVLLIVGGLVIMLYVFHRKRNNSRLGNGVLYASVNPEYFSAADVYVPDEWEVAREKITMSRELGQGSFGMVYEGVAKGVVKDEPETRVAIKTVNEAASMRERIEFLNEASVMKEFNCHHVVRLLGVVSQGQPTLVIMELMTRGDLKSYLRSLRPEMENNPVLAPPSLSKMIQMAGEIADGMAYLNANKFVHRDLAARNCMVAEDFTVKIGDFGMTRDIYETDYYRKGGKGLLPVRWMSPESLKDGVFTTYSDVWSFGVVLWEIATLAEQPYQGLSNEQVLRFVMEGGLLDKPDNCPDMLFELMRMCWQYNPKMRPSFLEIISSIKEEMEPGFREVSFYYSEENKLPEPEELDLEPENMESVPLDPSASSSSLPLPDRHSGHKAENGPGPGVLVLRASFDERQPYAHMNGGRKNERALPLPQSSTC
row,Structure (SMILES),IC50
1,"COc1cc2c(cc1Nc1ncc(F)c(-c3cnn4ccccc34)n1)N(C(=O)CN(C)C)CC2 [Example 176, 2-(dimethylamino)-1-[6-[(5-fluoro-4-pyrazolo[1,5-a]pyridin-3-yl-pyrimidin-2-yl)amino]-5-methoxy-indolin-1-yl]ethanone]",22 nM
2,"COc1cc(N2CCNC(=O)C2)ccc1Nc1ncc(F)c(-c2cnc3ccccn23)n1 [Example 88, 4-[4-[(5-fluoro-4-imidazo[1,2-a]pyridin-3-yl-pyrimidin-2-yl)amino]-3-methoxy-phenyl]piperazin-2-one]",23 nM
3,"COc1cc(N2CCN(C(=O)[C@@H](C)N)CC2)ccc1Nc1ncc(Cl)c(-c2cnc3cc(C)ccn23)n1 [Example 254, (2R)-2-amino-1-[4-[4-[[5-chloro-4-(7-methylimidazo[1,2-a]pyridin-3-yl)pyrimidin-2-yl]amino]-3-methoxy-phenyl]piperazin-1-yl]propan-1-one]",5 nM
4,"COc1cc(N2CC3CN(C(=O)[C@H](C)O)CC(C2)O3)ccc1Nc1ncc(Cl)c(-c2cnc3c(F)cccn23)n1 [Example 213, (2S)-1-[3-[4-[[5-chloro-4-(8-fluoroimidazo[1,2-a]pyridin-3-yl)pyrimidin-2-yl]amino]-3-methoxy-phenyl]-9-oxa-3,7-diazabicyclo[3.3.1]nonan-7-yl]-2-hydroxy-propan-1-one]",14 nM
5,"COc1cc(N2CC3CN(CCO)CC(C2)O3)ccc1Nc1ncc(F)c(-c2cnn3ccccc23)n1 [Example 175, 2-[7-[4-[(5-fluoro-4-pyrazolo[1,5-a]pyridin-3-yl-pyrimidin-2-yl)amino]-3-methoxy-phenyl]-9-oxa-3,7-diazabicyclo[3.3.1]nonan-3-yl]ethanol]",14 nM
6,"COc1cc(N2CCN(CCO)CC2)ccc1Nc1ncc(Cl)c(-c2cnn3ccccc23)n1 [Example 134, 2-[4-[4-[(5-chloro-4-pyrazolo[1,5-a]pyridin-3-yl-pyrimidin-2-yl)amino]-3-methoxy-phenyl]piperazin-1-yl]ethanol]",5 nM
7,"COc1cc(C2CCN(C(=O)CO)CC2)ccc1Nc1ncc(Cl)c(-c2cnc3ccc(F)cn23)n1 [Example 244, 1-[4-[4-[[5-chloro-4-(6-fluoroimidazo[1,2-a]pyridin-3-yl)pyrimidin-2-yl]amino]-3-methoxy-phenyl]-1-piperidyl]-2-hydroxy-ethanone]",5 nM
8,"COc1cc(N2CCN(C(=O)[C@@H](C)O)CC2)ccc1Nc1ncc(Cl)c(-c2cnc3c(F)cccn23)n1 [Example 178, (2R)-1-[4-[4-[[5-chloro-4-(8-fluoroimidazo[1,2-a]pyridin-3-yl)pyrimidin-2-yl]amino]-3-methoxy-phenyl]piperazin-1-yl]-2-hydroxy-propan-1-one]",15 nM
9,"COc1cc(C(=O)N2C[C@@H]3C[C@H]2CN3)ccc1Nc1ncc(Cl)c(-c2cnc3ccccn23)n1 [Example 29, [4-[(5-chloro-4-imidazo[1,2-a]pyridin-3-yl-pyrimidin-2-yl)amino]-3-methoxy-phenyl]-[(1S,4S)-2,5-diazabicyclo[2.2.1]heptan-5-yl]methanone]",17 nM
10,"COc1cc2c(cc1Nc1ncc(Cl)c(-c3cnn4ccccc34)n1)N(C(=O)CN(C)C)CC2 [Example 157, 1-[6-[(5-chloro-4-pyrazolo[1,5-a]pyridin-3-yl-pyrimidin-2-yl)amino]-5-methoxy-indolin-1-yl]-2-(dimethylamino)ethanone]",1 nM
11,"COc1cc(C2CCN(C(=O)[C@@H](C)O)CC2)ccc1Nc1ncc(C)c(-c2cnc3c(F)cccn23)n1 [Example 200, (2R)-1-[4-[4-[[4-(8-fluoroimidazo[1,2-a]pyridin-3-yl)-5-methyl-pyrimidin-2-yl]amino]-3-methoxy-phenyl]-1-piperidyl]-2-hydroxy-propan-1-one]",32 nM
12,"COc1cc(C2CCN(C(C)=O)CC2)ccc1Nc1ncc(F)c(-c2cnc3ccccn23)n1 [Example 78, 1-[4-[4-[(5-fluoro-4-imidazo[1,2-a]pyridin-3-yl-pyrimidin-2-yl)amino]-3-methoxy-phenyl]-1-piperidyl]ethanone]",54 nM
13,"COc1cc(N2CCN(CCO)CC2)ccc1Nc1ncc(C)c(-c2cnn3ccccc23)n1 [Example 161, 2-[4-[3-methoxy-4-[(5-methyl-4-pyrazolo[1,5-a]pyridin-3-yl-pyrimidin-2-yl)amino]phenyl]piperazin-1-yl]ethanol]",11 nM
14,"COc1cc(N2CCN(C(C)=O)CC2)ccc1Nc1ncc(C2CC2)c(-c2cnn3ccccc23)n1 [Example 234, 1-[4-[4-[(5-cyclopropyl-4-pyrazolo[1,5-a]pyridin-3-yl-pyrimidin-2-yl)amino]-3-methoxy-phenyl]piperazin-1-yl]ethanone]",31 nM
15,"COc1cc(N2CCN(C(=O)CO)CC2)ccc1Nc1ncc(Cl)c(-c2cnc3cc(C)ccn23)n1 [Example 251, 1-[4-[4-[[5-chloro-4-(7-methylimidazo[1,2-a]pyridin-3-yl)pyrimidin-2-yl]amino]-3-methoxy-phenyl]piperazin-1-yl]-2-hydroxy-ethanone]",9 nM
16,"COc1cc(C2CCN(C(=O)[C@H](C)O)CC2)ccc1Nc1ncc(Cl)c(-c2cnn3ccccc23)n1 [Example 139, (2S)-1-[4-[4-[(5-chloro-4-pyrazolo[1,5-a]pyridin-3-yl-pyrimidin-2-yl)amino]-3-methoxy-phenyl]-1-piperidyl]-2-hydroxy-propan-1-one]",12 nM
17,"COc1cc(N(C)CC(=O)N2CCNCC2)ccc1Nc1ncc(Cl)c(-c2cnc3c(F)cccn23)n1 [Example 227, 2-[4-[[5-chloro-4-(8-fluoroimidazo[1,2-a]pyridin-3-yl)pyrimidin-2-yl]amino]-3-methoxy-N-methyl-anilino]-1-piperazin-1-yl-ethanone]",48 nM
18,"COc1cc(C2CCN(C(=O)N(C)C)CC2)ccc1Nc1ncc(Cl)c(-c2cnc3ccccn23)n1 [Example 57, 4-[4-[(5-chloro-4-imidazo[1,2-a]pyridin-3-yl-pyrimidin-2-yl)amino]-3-methoxy-phenyl]-N,N-dimethyl-piperidine-1-carboxamide]",6 nM
19,"COc1cc(N2CCN(C)CC2)ccc1Nc1ncc(F)c(-c2cnc3ccccn23)n1 [Example 119, 5-fluoro-4-imidazo[1,2-a]pyridin-3-yl-N-[2-methoxy-4-(4-methylpiperazin-1-yl)phenyl]pyrimidin-2-amine]",95 nM
20,"COc1cc2c(cc1Nc1ncc(Cl)c(-c3cnn4ccccc34)n1)NCC2 [Example 155, N-(5-chloro-4-pyrazolo[1,5-a]pyridin-3-yl-pyrimidin-2-yl)-5-methoxy-indolin-6-amine]",120 nM
21,"COc1cc(N2CCNCC2)ccc1Nc1ncc(Cl)c(-c2cnc3c(F)cc(F)cn23)n1 [Example 265, 5-chloro-4-(6,8-difluoroimidazo[1,2-a]pyridin-3-yl)-N-(2-methoxy-4-piperazin-1-yl-phenyl)pyrimidin-2-amine]",6 nM
22,"COc1cc(N2CCN(C(=O)CO)CC2)ccc1Nc1ncc(Cl)c(-c2cnc3c(F)cc(F)cn23)n1 [Example 250, 1-[4-[4-[[5-chloro-4-(6,8-difluoroimidazo[1,2-a]pyridin-3-yl)pyrimidin-2-yl]amino]-3-methoxy-phenyl]piperazin-1-yl]-2-hydroxy-ethanone]",7 nM

# Next, values leading:
row,IC50,Structure (SMILES)
1,11 nM,COc1cc(C2CN(C(=O)[C@H](C)O)C2)ccc1Nc1ncc(Cl)c(-c2cnn3ccccc23)n1 [Example 135A]
2,5 nM,"COc1cc(C2CCN(C(=O)[C@@H](C)OC)CC2)ccc1Nc1ncc(Cl)c(-c2cnc3ccccn23)n1 [Example 28.1, (2R)-1-[4-[4-[(5-chloro-4-imidazo[1,2-a]pyridin-3-yl-pyrimidin-2-yl)amino]-3-methoxy-phenyl]-1-piperidyl]-2-methoxy-propan-1-one]"
3,12 nM,"COc1cc(OC[C@H]2CCCN2)ccc1Nc1ncc(Cl)c(-c2cnc3ccccn23)n1 [Example 6.1, 5-chloro-4-imidazo[1,2-a]pyridin-3-yl-N-[2-methoxy-4-[[(2R)-pyrrolidin-2-yl]methoxy]phenyl]pyrimidin-2-amine]"
4,43 nM,"COc1cc(N2CC[C@H](N(C)C)C2)ccc1Nc1ncc(Cl)c(-c2cnc3ccccn23)n1 [Example 3.16, 5-chloro-N-[4-[(3S)-3-dimethylaminopyrrolidin-1-yl]-2-methoxy-phenyl]-4-imidazo[1,2-a]pyridin-3-yl-pyrimidin-2-amine]"
5,36 nM,"COc1cc(O[C@H]2CCN(C(=O)[C@H](C)O)C2)ccc1Nc1ncc(Cl)c(-c2cnc3ccccn23)n1 [Example 15A, (2S)-1-[(3S)-3-[4-[(5-chloro-4-imidazo[1,2-a]pyridin-3-yl-pyrimidin-2-yl)amino]-3-methoxy-phenoxy]pyrrolidin-1-yl]-2-hydroxy-propan-1-one]"
6,6 nM,"COc1cc(N2CCN(C(=O)[C@@H]3C[C@@H](O)CN3)CC2)ccc1Nc1ncc(Cl)c(-c2cnc3ccccn23)n1 [Example 24.9, [4-[4-[(5-chloro-4-imidazo[1,2-a]pyridin-3-yl-pyrimidin-2-yl)amino]-3-methoxy-phenyl]piperazin-1-yl]-[(2S,4R)-4-hydroxypyrrolidin-2-yl]methanone]"
7,15 nM,"COc1cc(N2CCN(C(C)=O)CC2)ccc1Nc1ncc(Cl)c(-c2cnc3cc(Br)ccn23)n1 [Example 126.19, 1-[4-[4-[[4-(7-bromoimidazo[1,2-a]pyridin-3-yl)-5-chloro-pyrimidin-2-yl]amino]-3-methoxy-phenyl]piperazin-1-yl]ethanone]"
8,44 nM,"COCCN1CCN(CCOc2ccc(Nc3ncc(Cl)c(-c4cnc5ccccn45)n3)c(OC)c2)CC1 [Example 3.12, 5-chloro-4-imidazo[1,2-a]pyridin-3-yl-N-[2-methoxy-4-[2-[4-(2-methoxyethyl)piperazin-1-yl]ethoxy]phenyl]pyrimidin-2-amine]"
9,132 nM,"COc1cc(CC(=O)O)ccc1Nc1ncc(Cl)c(-c2cnc3ccccn23)n1 [Example 34A, 2-(4-(5-chloro-4-(imidazo[1,2-a]pyridin-3-yl)pyrimidin-2-ylamino)-3-methoxyphenyl)acetic acid]"
10,10 nM,"COc1cc(N2C[C@@H](C)N(C(C)=O)C[C@@H]2C)ccc1Nc1ncc(Cl)c(-c2cnc3ccccn23)n1 [Example 3.35, 1-[(2R,5S)-4-[4-[(5-chloro-4-imidazo[1,2-a]pyridin-3-yl-pyrimidin-2-yl)amino]-3-methoxy-phenyl]-2,5-dimethyl-piperazin-1-yl]ethanone]"
